Results reported in patent US20220089655A1, “NOVEL POLYPEPTIDE-MODIFYING ENZYMES AND USES THEREOF” (ETH ZURICH, priority 2018, published 2022).
Starred links: 1 amine or outer side, 2 acyl side, 3 side chain; linkers in the order of their positions; H or OH if unused. Non-standard residues stand in square brackets, D forms with d. No end group written: not given here. *: point of attachment. X1 = CC(C)C(C)[C@H](N[*:1])C(=O)[*:2]; Ile(3-Me) = CCC(C)(C)[C@H](N)C(=O)O; d(aThr) = C[C@@H](O)[C@@H](N)C(=O)O; Butanoyl(2-oxo) = CCC(=O)C(=O)*; Tle = CC(C)(C)[C@H](N)C(=O)O

Columns and labels:
[1] = Cytotoxic assay (MTT) against HeLa cells; format: cell-based; conditions: 3 days incubation, MTT readout
Description: The activity of aeronamide A was measured against HeLa cells. Stocked HeLa cells were resuspended in 10 mL HEPES buffered high glucose Dulbecco's Modified Eagle Medium (DMEM) supplemented with GlutaMAX (Gibco). Additionally, the medium contained 10% fetal calf serum (FCS) and […] gentamycin. The cells were centrifuged for 5 min at 1000×g and room temperature. The medium was discarded and the cells resuspended in 10 mL fresh medium. The cells were put in a culture dish and incubated for 3-4 days at 37° C. The cells were checked under the microscope and treated further only when 60-80% of the surface was covered with cells. The medium was removed from the culture flask and the cells were washed with 10 mL phosphate buffered saline (PBS). The PBS was discarded and the cells treated with 2 mL Trypsin-EDTA solution. When the cells were detached, 10 mL of medium was added and centrifuged for 5 min at 1000×g and room temperature. The supernatant was discarded and 10 mL fresh medium were added. 2 mL of the cell suspension were put in a fresh culture flask containing 10 mL medium. Cells healthy enough for cytotoxicity assays were counted and diluted to a 10,000 cells/mL solution. 96 well plates were filled with 200 μL cell suspension per well. All plates were incubated overnight at 37° C. […] Absorbance was measured at 570 nm and IC50 was calculated using GraphPad Prism 6 (GraphPad).

fungi = experiment: Activity towards fungi
bacteria = experiment: Activity towards bacteria

Substance: {Butanoyl(2-oxo)}-[Ile(3-Me)][dA][Tle][dV][X1][dV]A[dV][Tle]GA[dA]A[dA]A[dV][Tle][d(aThr)]Y[dL]G[dA]A[dD](NHMe)[Tle][dV]G[dA]A[dD](NHMe)G[d(aThr)][Tle][d(aThr)]A[dD](NHMe)A[dV]A[dD](NHMe)T[dD](NHMe)A[dV]A [Aeronamide A]
- IC50 [1]: 1.48 nM
- cytotoxic activity towards fungi (fungi): not towards the bacteria and fungi
- cytotoxic activity towards bacteria (bacteria): not towards the bacteria and fungi
